Reference: patent US20230106465A1, “7-Gene Prognostic and Predictive Assay for Non-Small Cell Lung Cancer in Formalin Fixed and Paraffin Embedded Samples” (West Virginia University, priority 2019, published 2023)

Assays:
Assay type in all cases: in vivo, human
[1] = tested on: FUT7; test: Cox proportional hazard model using FUT7 ΔCt values in qRT-PCR of NSCLC patients treated with chemotherapy; details: FUT7 expression
Source text: Patient samples. All NSCLC patients were staged I, II, or IIIA at the time of diagnosis. Tumor tissues were collected in surgical resections and were then formalin fixed or paraffin embedded until used for RNA extraction. Tumor cell content was above 50% for qRT-PCR assays. Those with missing AJCC staging information, missing histology, death within 30 days of resection or from other disease conditions were excluded from further analysis. A total of 122 NSCLC patient samples were obtained from Case Western Reserve University (CWRU) Comprehensive Cancer Center. Total RNA of good quality was extracted from 89 tumor specimens. […]
(§1) RNA extraction, and quality and concentration assessments. […] The quality and integrity of the RNA, the 28S to 18S ratio, and a visual image of the 28S and 18S bands were evaluated on the 2100 Bioanalyzer (Agilent Technologies, CA). RNA assessed as having good quality from 304 tumor samples was included for further analysis. The RNA concentration of each sample was assessed using a Nanodrop-1000 Spectrophotometer (NanoDrop Tech, Germany). […]
(§2) Real-time quantitative RT-PCR low-density arrays. […]
Three hundred thirty seven (337) tumor samples were analyzed with good RNA quality using TaqMan microfluidic low-density array (LDA) plates on an ABI 7900HT Fast RT-PCR instrument (Applied Biosystems). Total RNA samples were analyzed on an Agilent 2100 Bioanalyzer RNA 6000 Nano LabChip. […]

[2] = tested on: SLC39A8; test: Cox proportional hazard model using SLC39A8 ΔCt values in qRT-PCR of NSCLC patients treated with chemotherapy; details: SLC39A8 expression
Source text: (§3) Patient samples. All NSCLC patients were staged I, II, or IIIA at the time of diagnosis. Tumor tissues were collected in surgical resections and were then formalin fixed or paraffin embedded until used for RNA extraction. Tumor cell content was above 50% for qRT-PCR assays. Those with missing AJCC staging information, missing histology, death within 30 days of resection or from other disease conditions were excluded from further analysis. A total of 122 NSCLC patient samples were obtained from Case Western Reserve University (CWRU) Comprehensive Cancer Center. […] The tissue collection in this study was approved by an Institutional Review Board (IRB) at each institution.
as §1, with “RNA assessed as having good quality from 304 tumor samples was included for further analysis.” left out
as §2
(§4) Three hundred thirty seven (337) tumor samples were analyzed with good RNA quality using TaqMan microfluidic low-density array (LDA) plates on an ABI 7900HT Fast RT-PCR instrument (Applied Biosystems).

[3] = tested on: ABCC4; test: Cox proportional hazard model using ABCC4 ΔCt values in qRT-PCR of NSCLC patients treated with chemotherapy; details: ABCC4 expression; patients treated with the named agent(s)
Source text: as §3
as §1, with “RNA assessed as having good quality from 304 tumor samples was included for further analysis.” left out
as §2, §4

N.N.O=C([O-])C1(C(=O)[O-])CCC1.[Pt+2] [Carboplatin, carboplatin]
Chemosensitive/resistant [1]: Chemosensitive

Nc1nc2[nH]cc(CCc3ccc(C(=O)N[C@@H](CCC(=O)O)C(=O)O)cc3)c2c(=O)[nH]1 [Alimta, pemetrexed]
Chemosensitive/resistant [2]: Chemoresistant

CC(=O)O[C@H]1C(=O)[C@@]2(C)[C@H]([C@H](OC(=O)c3ccccc3)[C@]3(O)C[C@H](OC(=O)[C@H](O)[C@@H](NC(=O)c4ccccc4)c4ccccc4)C(C)=C1C3(C)C)[C@]1(OC(C)=O)CO[C@@H]1C[C@@H]2O [Taxol, paclitaxel]
Chemosensitive/resistant [3]: Chemoresistant | Chemosensitive/resistant [2]: Chemoresistant
